{"source": "patent US12109207B2", "about": "“Methods of using 4(1H)-quinolone derivatives” (Academia Sinica, priority 2019, dated 2024)", "key": {"[1]": {"target": "tubulin (Sus scrofa, UniProt P02554)", "assay": "Binding affinity assay (surface plasmon resonance)", "conditions": "steady-state model, 25° C.; read-out: dissociation constant (KD) for the tubulin-AS1712 complex", "experimental": "Surface plasmon resonance technology was used to analyze the binding affinity of AS1712 for tubulin. A Series S Sensor Chip SA was conditioned with three consecutive 1-min injections of 1 M NaCl in 50 mM NaOH, and then 50 μg/mL biotin-tubulin (Cytoskeleton) was immobilized onto the sensor chip surface in a Biacore T200 system (GE Healthcare) to attain 3,000 resonance units. One flow cell on the chip was left free to serve as the negative control. Biocytin (Sigma Aldrich) was used to block any remaining unmodified streptavidin sites. Different concentrations of AS1712 in 10 mM HEPES, 150 mM NaCl, 3 mMEDTA, and 0.05% surfactant P20, pH 7.4 were separately injected over the sensor chip surface to measure the association and dissociation of AS1712 and tubulin at 25° C. The value of KD was calculated using the steady-state fitting mode in Biacore T200 Evaluation Software."}, "[2]": {"target": "colchicine site of tubulin (Sus scrofa, UniProt P02554)", "assay": "Colchicine competition assay", "type": "binding", "conditions": "37° C. for 1 h", "experimental": "Tubulin ([…]) and colchicine ([…]) were incubated with the various concentrations of AS1712, nocodazole, or vincristine in 80 mM PIPES, 2 mM MgCl2, 0.5 mM EGTA, pH 6.9 at 37° C. for 1 h. Fluorescence intensities (excitation and emission wavelengths at 365 and 435 nm, respectively) were recorded using an Infinite M200 plate reader (Tecan). Fluorescence values were normalized to the DMSO control."}, "[3]": {"system": "SW620", "assay": "Cell cytotoxicity assay (MTS), SW620", "type": "cell-based", "conditions": "Homo sapiens, SW-620", "experimental": "(§1) Cells were seeded into the wells of 96-well plates (2000 cells/well). After an overnight culture, the cells were treated with different concentrations of a compound for 72 h. The CellTiter 96 AQueous one-solution cell proliferation assay (MTS) reagent was used to determine cytotoxicity. After treatment with a compound, 20 μL of the MTS reagent was added to each well and the plates were incubated at 37° C. for 1-4 h. Next, the absorbance at 490 nm of the culture medium in each well was determined using a VersaMax microplate reader (Molecular Devices)."}, "[4]": {"system": "MDA-MB-231", "assay": "Cell cytotoxicity assay (MTS), MDA-MB-231", "type": "cell-based", "conditions": "Homo sapiens, MDA-MB-231, 72 h", "experimental": "as §1"}, "[5]": {"system": "HDQP1", "assay": "Cell cytotoxicity assay, HDQP1", "type": "cell-based", "conditions": "Homo sapiens, HDQ-P1; TNBC cell line HDQP1", "experimental": "as §1"}, "[6]": {"system": "SKOV-3", "assay": "Cell cytotoxicity assay (MTS), SKOV-3", "type": "cell-based", "conditions": "Homo sapiens, SK-OV-3", "experimental": "as §1"}, "[7]": {"system": "Ovcar-3", "assay": "Cell cytotoxicity assay (MTS), Ovcar-3", "type": "cell-based", "conditions": "Homo sapiens", "experimental": "as §1"}, "[8]": {"assay": "Body mass and serum biochemical markers, H1975 xenograft mice", "type": "in vivo, BALB/c nude mice", "conditions": "for ALT (IU/L) / AST(IU/L) / BUN / Cre: day 25, mean ± SEM", "experimental": "(§2) Using the H1975, MDA-MB-231, and KBtax xenograft models, tumors were established after inoculation into the right flanks of 6-week-old BALB/c nude mice (NARLabs, Taipei, Taiwan). After establishment of the tumors, vehicle and test compounds, which had been dissolved in DMSO, were each injected intraperitoneally into a separate group of animals three times per week. The body mass of each animal and tumor volumes were measured before each drug delivery. Tumor volume was calculated as 0.5W^2L (with W being the width of the smaller diameter and L being the length of the larger diameter). The animal experiment was carried out in accordance with the procedures and guidelines of the Institutional Animal Care and Use Committee, Institute of Biomedical Sciences, Academia Sinica."}, "[9]": {"system": "BT-549", "assay": "Cell cytotoxicity assay (MTS), BT-549", "type": "cell-based", "conditions": "Homo sapiens, BT-549, 72 h", "experimental": "as §1"}, "[10]": {"system": "CL1-0 and H1975 cells", "assay": "Colony formation assay", "type": "cell-based, human", "conditions": "12.5-200 nM, 14 days", "experimental": "Cells were seeded into the wells of six-well plates (1000 cells/well). After overnight culture, the cells were treated with various concentrations of AS1712 for 2 weeks. Then, the colonies in each well were fixed with 3.7% paraformaldehyde, stained with 0.04% crystal violet, and dissolved in 1 ml DMSO. The absorbance at 590 nm of each DMSO solution was read using the VersaMax microplate reader."}, "[11]": {"system": "H1975 cells", "assay": "Cell cytotoxicity assay (MTS), H1975", "type": "cell-based, human", "conditions": "H1975 cells, 72 h, MTS, read-out: IC50", "experimental": "as §1"}, "[12]": {"system": "KB", "assay": "Cell cytotoxicity assay (MTS), KB", "type": "cell-based", "conditions": "Homo sapiens", "experimental": "as §1"}, "[13]": {"system": "A549", "assay": "Cell cytotoxicity assay (MTS), A549", "type": "cell-based", "conditions": "Homo sapiens, A549, 72 h", "experimental": "as §1"}, "[14]": {"system": "H1975 xenograft tumor", "assay": "H1975 xenograft tumor model", "type": "in vivo, BALB/c nude mice", "conditions": "day 25", "experimental": "as §2"}, "[15]": {"system": "human fibroblast (HFB) cells", "assay": "Cell cytotoxicity assay (MTS), human fibroblast", "type": "cell-based", "conditions": "normal cell line HFB", "experimental": "as §1"}, "[16]": {"system": "CL1-0 and H1975 cells", "assay": "Pro-apoptotic protein immunoblotting, cancer cells", "type": "cell-based, human", "conditions": "24 to 72 h", "experimental": "The cells were harvested and lysed in RIPA buffer (20 mM Tris-HCl, 150 mM NaCl, 1 mM Na2EDTA, 1% sodium deoxycholate, 1% IGEPAL CA-630, 0.1% SDS, pH 7.5) with protease inhibitors (Roche). Protein concentration was measured by the BCA assay. For immunoprecipitation, protein extracts were incubated with mag-beads-AS1712 or mag-beads-control at 4° C. overnight and then washed five times with PBS before immunoblotting. For immunoblotting, equivalent amounts of denatured proteins were separated through SDS-PAGE gels and then transferred to PVDF membranes (Millipore), which were each blocked with 5% nonfat milk in PBS and 0.1% Tween-20 (Sigma Aldrich) for 1 h. Then each membrane was incubated with a primary antibody overnight at 4° C., followed by incubation with a horseradish peroxidase conjugated secondary antibody for 1 h at room temperature. The signal was visualized by enhanced chemiluminescence detection, and images were acquired using a BioSpectrum Imaging System (UVP)."}, "[17]": {"system": "CL1-0", "assay": "Cell cytotoxicity assay (MTS), CL1-0", "type": "cell-based", "conditions": "Homo sapiens, CL1-0, 72 h", "experimental": "as §1"}, "[18]": {"system": "23 cancer cell lines", "assay": "Cytotoxicity against 23 cancer cell lines", "type": "cell-based, human", "experimental": "as §1"}}, "note": "Like-named read-outs stand apart in the source and are kept apart here.", "data": [{"smiles": "CCOC(=O)c1ccc2[nH]c(-c3ccccc3)cc(=O)c2c1", "note": "[AS1712, Ethyl 4-oxo-2-phenyl-1,4-dihydroquinoline-6-carboxylate]", "values": [{"measurement": "Kd", "setting": "[1]", "value": 13.8, "unit": "µM"}, {"measurement": "colchicine fluorescence", "setting": "[2]", "value": "decreased the colchicine fluorescence in a dose-dependent manner"}, {"measurement": "IC50", "setting": "[3]", "value": "35 ± 1.18", "unit": "nM"}, {"measurement": "IC50", "setting": "[4]", "value": "55 ± 6.83", "unit": "nM"}, {"measurement": "IC50", "setting": "[5]", "value": "68 ± 5.38", "unit": "nM"}, {"measurement": "IC50", "setting": "[6]", "value": "50 ± 0.32", "unit": "nM"}, {"measurement": "IC50", "setting": "[7]", "value": "28 ± 1.08", "unit": "nM"}, {"measurement": "ALT (IU/L)", "setting": "[8]; 4 mg/kg", "value": "40.8 ± 11", "unit": "IU/L"}, {"measurement": "AST(IU/L)", "setting": "[8]; 4 mg/kg", "value": "138.7 ± 58.6", "unit": "IU/L"}, {"measurement": "BUN", "setting": "[8]; 4 mg/kg", "value": "23.2 ± 2.5", "unit": "mg/dL"}, {"measurement": "Cre", "setting": "[8]; 4 mg/kg", "value": "0.26 ± 0.05", "unit": "mg/dL"}, {"measurement": "ALT (IU/L)", "setting": "[8]; 8 mg/kg", "value": "54.2 ± 16", "unit": "IU/L"}, {"measurement": "AST(IU/L)", "setting": "[8]; 8 mg/kg", "value": "170.8 ± 44.5", "unit": "IU/L"}, {"measurement": "BUN", "setting": "[8]; 8 mg/kg", "value": "20.9 ± 1.5", "unit": "mg/dL"}, {"measurement": "Cre", "setting": "[8]; 8 mg/kg", "value": "0.17 ± 0.02", "unit": "mg/dL"}, {"measurement": "body mass", "setting": "[8]; 4 or 8 mg/kg i.p. three times a week, end of experiment", "value": "non-toxic affected"}, {"measurement": "IC50", "setting": "[9]", "value": "33 ± 1.51", "unit": "nM"}, {"measurement": "colony-forming abilities", "setting": "[10]", "value": "suppressed in a dose-dependent manner"}, {"measurement": "IC50", "setting": "[11]", "value": 35, "unit": "nM"}, {"measurement": "IC50", "setting": "[11]; Homo sapiens, NCI-H1975, 72 h", "value": "33 ± 4.86", "unit": "nM"}, {"measurement": "IC50", "setting": "[12]", "value": "37 ± 0.27", "unit": "nM"}, {"measurement": "IC50", "setting": "[13]", "value": "20 ± 0.98", "unit": "nM"}, {"measurement": "average tumor size", "setting": "[14]; 4 mg/kg intraperitoneally three times a week", "value": "871.3±106", "unit": "mm^3"}, {"measurement": "average tumor size", "setting": "[14]; 8 mg/kg intraperitoneally three times a week", "value": "587.2±67", "unit": "mm^3"}, {"measurement": "IC50", "setting": "[15]", "value": "> 10", "unit": "µM"}, {"measurement": "cleavage of poly(ADP-ribose) polymerase (PARP) and caspase-3", "setting": "[16]", "value": "induced cleavage"}, {"measurement": "IC50", "setting": "[17]", "value": "16 ± 2.48", "unit": "nM"}, {"measurement": "IC50", "setting": "[18]; Homo sapiens, lung, breast, ovarian, head and neck, colon, prostate, leukemia lines, read-out: IC50 values for the 23 cancer cell lines tested", "value": "16 to 84", "unit": "nM"}, {"measurement": "therapeutic window", "setting": "[18]; cancer cell lines vs normal cells", "value": "> 100", "unit": "fold"}]}]}
